In paper PMC8305768, “Design, Synthesis and Antiparasitic Evaluation of Click Phospholipids” (Molecules, 2021):
Counter-ions that a name gives are not always drawn.

Key:
[1] = system: L. donovani strain BPK190 amastigotes; assay: Activity against L. donovani intramacrophage amastigotes (bone marrow-derived macrophages, qPCR); type: cell-based, Leishmania donovani; details: infected bone marrow-derived macrophages, 48 h; for inhibition of growth at 5 µM: Leishmania donovani, Macrophage, read-out: Parassite Load Reduction (%)
Experimental: L. donovani strain BPK 190 [55] was cultivated at 25 °C in modified Medium199 (Sigma-Aldrich, with 20% heat-inactivated FCS, 40 mM HEPES pH 7.4, 0.2% NaHCO3, 100 μM adenin, 1.2 μg/mL 6-biopterin and 10 μg/mL haem, with 1 × Pen/Strep/l-glutamine (Sigma, Saint Louis, MI, USA), pH 7.0).
Activity against L. donovani strain BPK190 was tested in vitro using bone marrow-derived macrophages as host cells. Infection was established for 24 h prior to the addition of compounds from 10 mM stocks in DMSO. Parasite load was determined 48 h later by quantifying Leishmania actin DNA relative to mouse actin DNA using real time qPCR as described.

[2] = Cytotoxicity against THP-1 macrophages (MTT); type: cell-based; details: human, PMA-differentiated THP-1 macrophages, read-out: Toxicity CC50 ± SD Or CC50 Interval Estimation
Experimental: The effect of compounds selected compounds on THP-1-derived macrophages was assessed by the colorimetric MTT assay (3-(4,5-dimethylthiazol-2-yl)-2,5-diphenyl tetrazolium bromide). Briefly, 1 × 10^5 THP-1 cells/mL were differentiated into macrophages by addition of 20 ng/mL of phorbol-myristate 13-acetate (PMA, Sigma, Saint Louis, MI, USA) for 18 h, followed by replacement with fresh medium for 24 h. Cells were incubated with 100 µL of compounds ranging from 100 to 1 µM after dilution in the RPMI complete medium containing a maximum amount of 1% DMSO. After incubation for 72 h, the medium was removed and 100 µL of 0.5 mg/mL MTT solution diluted in RPMI was added. Plates were incubated for an additional 4 h to allow viable cells to convert MTT into a purple formazan product. Solubilization of formazan crystals was achieved by the addition of 2-propanol and absorbance was read at 570 nm using a Synergy 2 Multi-Mode Reader (Biotek, Winooski, VT, USA). Cytotoxicity was evaluated by the determination of the CC50 value (drug concentration that reduced the percentage of viable cells in 50%) and calculated by non-linear regression analysis using GraphPad Prism version 8.1.1 for Windows (GraphPad Software, San Diego, CA, USA).

[3] = target: T1, CYP2C9 (Homo sapiens, UniProt P11712); assay: Cytochrome P450 inhibition assay (P450-Glo) CYP2C9; type: in vitro ADME; details: compounds 10 μM; miltefosine 10 μM or 1 μM
T1 construct: purchased Corning Inc; host or cells: baculovirus-infected insect cells
T1 sequence (P11712 whole entry): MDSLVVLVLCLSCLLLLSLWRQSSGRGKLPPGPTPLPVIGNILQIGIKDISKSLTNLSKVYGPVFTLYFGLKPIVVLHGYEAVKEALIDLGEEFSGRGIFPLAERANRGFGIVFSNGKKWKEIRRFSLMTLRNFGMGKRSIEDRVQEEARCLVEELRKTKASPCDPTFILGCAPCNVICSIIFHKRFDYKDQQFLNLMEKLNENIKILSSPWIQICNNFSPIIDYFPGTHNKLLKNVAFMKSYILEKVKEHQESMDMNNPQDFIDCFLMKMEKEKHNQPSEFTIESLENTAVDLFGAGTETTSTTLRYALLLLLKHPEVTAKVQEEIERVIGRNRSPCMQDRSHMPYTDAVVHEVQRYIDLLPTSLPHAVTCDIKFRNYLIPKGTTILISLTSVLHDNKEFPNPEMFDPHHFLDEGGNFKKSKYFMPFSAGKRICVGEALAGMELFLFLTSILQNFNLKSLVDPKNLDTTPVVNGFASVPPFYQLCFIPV
From the text: (§1) Cytochrome (CYP) P450 inhibition assay: These assays made use of microsomal preparations of CYP450 (1A2, 2C9, 2C19, 2D6 and 3A4) from baculovirus-infected insect cells (Corning Inc., Corning, NY, USA) and cytochrome c reductase (and cytochrome b5 for CYP450 3A4). For detection of CYP450 activity, the luminescence-based P450-Glo (Promega Corp., Madison, WI, USA) assay system was used that contained a luminogenic CYP450 substrate, lyophilized luciferin detection reagent and reconstitution buffer. The substrates were luciferin derivatives of CYP450-specific substrates that produce (4S)-4,5-dihydro-2-(6-hydroxybenzothiazolyl)-4-thiazolecarboxylic acid (D-luciferin) after cleavage by CYP450 (CYP450 3A4, luciferin-IPA; CYP450 2C19, luciferin-H EGE; CYP450 2C9, luciferin-H; CYP450 2D6, luciferin-ME EGE; CYP450 1A2, luciferin-1A2). CYP450 reactions were initiated by addition of the NADPH regeneration system to the enzyme–substrate mixture with the luciferin detection reagent stopping the reaction and the D-luciferin being converted to oxyluciferin under the production of light being proportional to the CYP450 activity. The CYP450 assays were performed using the Tecan Fluent liquid-handling automation platform (Tecan Group Ltd., Mannedorf, Switzerland) in the 384-well assay format. Compounds were added into an empty 384-well plate (100 nL/well in 1% v/v DMSO) using the Echo 550 Liquid Handler followed by the addition of 5 μL/well of the CYP450/substrate mixture and incubation for 30 min at 37 °C, after which the reaction was initiated by the addition of the 5 μL/well NADPH regeneration system. After a further 30-min incubation at 37 °C, the CYP450 reaction was stopped and the luciferase reaction was simultaneously initiated by addition of 10 μL/well of luciferin detection reagent, followed by an additional 30-min incubation at 37 °C. The luminescence signal was detected using an Infinite M1000 PRO plate reader (Tecan Group Ltd., Mannedorf, Switzerland). The NCs yielded 0% inhibition (1% v/v DMSO) and standard CYP450 specific inhibitors were used as positive controls, yielding 100% inhibition (CYP450 1A2, alpha-naphthoflavone; CYP450 2C9, sulfaphenazole; CYP450 2C19, troglitazone; CYP450 2D6, quinidine; CYP450 3A4, ketoconazole).
(§2) Data analysis: The screening data were obtained in triplicate and analysed using ActivityBase (IDBS, Guildford, UK), and outlier elimination in the control wells was performed using the 3-sigma method. Unless stated, dose–response experiments were performed in the 11-point format with the IC50 value, Hill slope, minimum signal and maximum signal for each dose–response curve obtained using a four-parameter logistic fit in the XE module of ActivityBase (IDBS).

[4] = target: T2, CYP2D6 (Homo sapiens, UniProt P10635); assay: Cytochrome P450 inhibition assay (P450-Glo) CYP2D6; type: in vitro ADME; details: compounds 10 μM; miltefosine 10 μM or 1 μM
T2 construct: purchased Corning Inc; host or cells: baculovirus-infected insect cells
T2 sequence (P10635 whole entry): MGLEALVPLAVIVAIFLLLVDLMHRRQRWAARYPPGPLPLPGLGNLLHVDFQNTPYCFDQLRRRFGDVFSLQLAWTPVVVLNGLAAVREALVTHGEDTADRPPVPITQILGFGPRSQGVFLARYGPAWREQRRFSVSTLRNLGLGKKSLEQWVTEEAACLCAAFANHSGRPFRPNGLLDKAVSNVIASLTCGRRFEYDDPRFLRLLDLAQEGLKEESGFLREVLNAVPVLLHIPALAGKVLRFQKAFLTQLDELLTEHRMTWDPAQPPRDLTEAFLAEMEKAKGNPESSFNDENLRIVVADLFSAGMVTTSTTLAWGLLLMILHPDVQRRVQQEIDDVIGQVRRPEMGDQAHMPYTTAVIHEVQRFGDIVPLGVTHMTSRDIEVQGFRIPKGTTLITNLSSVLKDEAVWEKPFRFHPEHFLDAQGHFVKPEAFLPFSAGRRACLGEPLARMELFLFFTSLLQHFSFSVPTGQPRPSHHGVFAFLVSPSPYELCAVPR
From the text: as §1, §2

[5] = target: T3, CYP3A4 (Homo sapiens, UniProt P08684); assay: Cytochrome P450 inhibition assay (P450-Glo) CYP3A4; type: in vitro ADME; details: compounds 10 μM; miltefosine 10 μM or 1 μM
T3 construct: purchased Corning Inc; host or cells: baculovirus-infected insect cells
T3 sequence (P08684 2-503 limits assumed): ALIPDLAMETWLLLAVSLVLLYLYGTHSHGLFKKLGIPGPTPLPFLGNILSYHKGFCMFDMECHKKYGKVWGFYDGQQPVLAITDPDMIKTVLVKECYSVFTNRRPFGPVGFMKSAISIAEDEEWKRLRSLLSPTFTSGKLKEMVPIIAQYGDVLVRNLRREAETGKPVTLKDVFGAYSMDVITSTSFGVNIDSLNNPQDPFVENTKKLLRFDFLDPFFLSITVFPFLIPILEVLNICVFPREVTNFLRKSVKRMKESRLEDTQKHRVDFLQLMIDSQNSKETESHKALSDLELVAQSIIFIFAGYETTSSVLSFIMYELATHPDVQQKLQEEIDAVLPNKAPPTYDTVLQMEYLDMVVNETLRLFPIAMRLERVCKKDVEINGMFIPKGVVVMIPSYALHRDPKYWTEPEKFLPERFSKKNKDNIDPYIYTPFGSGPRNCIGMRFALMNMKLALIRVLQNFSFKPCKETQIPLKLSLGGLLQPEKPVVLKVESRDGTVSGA
From the text: as §1, §2

Row | SMILES | inhibition of growth at 5 µM [1] [%] | CC50 at 72 h [2] [µM] | % inhibition ± SD at 10 μΜ CYP2C9 [3] | % inhibition ± SD at 10 μΜ CYP2D6 [4] | % inhibition ± SD at 10 μΜ CYP3A4 [5] | Parassite Load Reduction (%) ([1]; 5 μM)
1 | C[N+](C)(C)CCOP(=O)([O-])OCCCCCCCCCCCn1cc(CC2CCCC2)nn1 [Compound 28, 11-(4-(cyclopentylmethyl)-1H-1,2,3-triazol-1-yl)undecyl (2-(trimethylammo nio)ethyl) phosphate inner salt] | 0 | > 100 | –23.46% | –56.57% | –33.70% | –
2 | CCCCCCCCCCCc1nnc(CCCCCCCCCCOP(=O)([O-])OCC[N+](C)(C)C)o1 [Compound 66, 2-(trimethylammonio)ethyl (10-(5-undecyl-1,3,4-oxadiazol-2-yl)decyl) phosphate inner salt] | – | 25 to 50 | – | – | – | –
3 | C[N+](C)(C)CCOP(=O)([O-])OCCCCCn1cc(CCCCCCCCN)nn1 [Compound 35, 5-(4-(8-aminooctyl)-1H-1,2,3-triazol-1-yl)pentyl (2-(trimethylammonio)ethyl) phosphate inner salt] | 69.1 | > 100 | 2.57% | 7.26% | –8.64% | –
4 | CCCCCCCCCCCCCCCCOP(=O)([O-])OCC[N+](C)(C)C [Miltefosine, hexadecylphosphocholine, reference compound] | 44.3 | 15.9 ± 1.2 | –0.80% | 30.83% | 8.39% | –
5 | CCCCCCCCCCc1cc(CCCCCCCCCCOP(=O)([O-])OCC[N+](C)(C)C)no1 [Compound 41, 10-(5-decylisoxazol-3-yl)decyl (2-(trimethylammonio)ethyl) phosphate inner salt] | – | 12.5 to 25 | – | – | – | –
6 | CCCCCc1cn(CCCCCCCCCCCOP(=O)([O-])OCC[N+](C)(C)C)nn1 [Compound 25, 11-(4-pentyl-1H-1,2,3-triazol-1-yl)undecyl (2-(trimethylammonio)ethyl) phosphate inner salt] | 0 | > 100 | –23.11% | –37.71% | –20.13% | –
7 | C[N+](C)(C)CCOP(=O)([O-])OCCCCCCCCCCCn1cc(CC2CCCCC2)nn1 [Compound 29, 11-(4-(cyclohexylmethyl)-1H-1,2,3-triazol-1-yl)undecyl (2-(trimethylammonio)ethyl) phosphate inner salt] | 41.7 | > 100 | –22.63% | –46.97% | –33.59% | –
8 | CCCCCCCc1nnc(CCCCCCCCCCOP(=O)([O-])OCC[N+](C)(C)C)o1 [Compound 65, 10-(5-heptyl-1,3,4-oxadiazol-2-yl)decyl (2-(trimethylammonio)ethyl) phosphate inner salt] | – | 12.5 to 25 | 28.32% | –30.44% | –2.44% | –
9 | CCCCCCCCc1noc(CCCCCOP(=O)([O-])OCC[N+](C)(C)C)n1 [Compound 53, 5-(3-octyl-1,2,4-oxadiazol-5-yl)pentyl (2-(trimethylammonio)ethyl) phosphate inner salt] | – | 12.5 to 25 | 5.45% | –26.41% | –12.40% | –
10 | CCCCCCCCc1noc(CCCCCCCCCCOP(=O)([O-])OCC[N+](C)(C)C)n1 [Compound 54, 10-(3-octyl-1,2,4-oxadiazol-5-yl)decyl (2-(trimethylammonio)ethyl) phosphate inner salt] | – | > 10 | – | 6.07% | 13.88% | –
11 | C[N+](C)(C)CCOP(=O)([O-])OCCCCCCCCCCCn1cc(CCCCCCCCNC(=O)OCc2ccccc2)nn1 [Compound 32, 11-(4-(8-(((benzyloxy)carbonyl)amino)octyl)-1H-1,2,3-triazol-1-yl)undecyl (2-(trimethylammonio)ethyl) phosphate inner salt] | 0.7 | > 100 | – | – | – | abolished the activity
12 | C[N+](C)(C)CCCOP(=O)([O-])OCCCCCCCCCCCn1cc(CC2CCCCC2)nn1 [Compound 33, 11-(4-(cyclohexylmethyl)-1H-1,2,3-triazol-1-yl)undecyl (3-(trimethylammonio)propyl) phosphate inner salt] | 47.8 | > 10 | 19.72% | 9.87±6.48% | 7.61 ± 9.09% | –
13 | C[N+](C)(C)CCOP(=O)([O-])OCCCCCCCCCCCn1cc(CCCCCCCCC(=O)O)nn1 [Compound 34, 11-(4-(8-carboxyoctyl)-1H-1,2,3-triazol-1-yl)undecyl (2-(trimethylammonio)ethyl) phosphate inner salt] | 43.8 | 50 to 100 | 18.94% | 23.08% | 19.27% | –
14 | C[N+](C)(C)CCOP(=O)([O-])OCCCCCn1cc(CCCCCCCCNC(=O)OCc2ccccc2)nn1 [Compound 31, 5-(4-(8-(((benzyloxy)carbonyl)amino)octyl)-1H-1,2,3-triazol-1-yl)pentyl (2-(trimethylammonio)ethyl) phosphate inner salt] | 59.2 | > 100 | 8.95% | 11.06% | –7.33% | –
